Data as given in patent publication US20210330611A1, “THERAPY FOR NEUROLOGICAL DISEASES/DISORDERS” (priority 2020, published 2021).
Where a name gives a salt, the structure may show the parent alone. Read-outs that look alike come from different tables or passages of the source.

Experiments:
primary rat microglia [1] = experiment: Cell toxicity (dead cells, size <150 μm2) in LPS assay
[2] = test system: fibrin- and LPS-induced microglia activation; experiment: cells; format: cell-based, rat
primary rat microglia [3] = experiment: Cell toxicity (dead cells, size <150 μm2) in coated fibrin (cFib) assay;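 note: share of dead cells sized under 150 µm2 at 10 µM in fibrin-stimulated microglia HTS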
[4] = test system: LPS-induced microglia activation; experiment: Image-based assay of LPS-induced microglia activation (HTS and dose response); format: cell-based, rat; settings: for inhibition at 10 µM: Rattus norvegicus, Microglia, read-out: LPS % inhibition
[5] = test system: fibrin-induced microglia activation; experiment: Image-based assay of fibrin-induced microglia activation (HTS and dose response); format: cell-based, rat; settings: for inhibition at 10 µM: Rattus norvegicus, Microglia, read-out: Fibrin % inhibition
[6] = primary microglia HTS, LPS stimulation, toxicity = cell size <150 μm2
[7] = quadrant by fibrin and LPS inhibition in HTS of 1907 compounds
[8] = primary microglia HTS, fibrin stimulation, toxicity = cell size <150 μm2
[9] = 48 h, primary microglia HTS, LPS stimulation, activation = cell size >800 μm2
[10] = primary microglia HTS, fibrin stimulation, activation = cell size >800 μm2
[11] = primary microglia HTS, 10 μM, LPS assay, cell size <150 μm^2 as marker of toxicity
[12] = HTS of 1907 compounds, quadrant by fibrin and LPS inhibition
[13] = primary microglia HTS, 10 μM, fibrin assay, cell size <150 μm^2 as marker of toxicity
[14] = primary microglia HTS, 10 μM, LPS-stimulated, cell size >800 μm^2 as marker of activation
[15] = primary microglia HTS, 10 μM, fibrin-stimulated, cell size >800 μm^2 as marker of activation
[16] = primary microglia HTS, LPS stimulation, decreased size (<150 μm^2) as marker of toxicity
[17] = primary microglia HTS, fibrin stimulation, decreased size (<150 μm^2) as marker of toxicity
[18] = 48 h, primary microglia HTS, LPS stimulation, increased cell size (>800 μm^2) as marker of activation
[19] = primary microglia HTS, fibrin stimulation, increased cell size (>800 μm^2) as marker of activation
[20] = primary HTS, 10 μM, LPS assay, dead cells size <150 μm2
[21] = primary HTS, 10 μM, fibrin assay, dead cells size <150 μm2
[22] = primary HTS, 10 μM, LPS-stimulated primary microglia
[23] = primary HTS, 10 μM, fibrin-stimulated primary microglia

## CN1CCc2cc3c(cc2C1O)OCO3 (stereo not drawn) [Hydrastinine Hydrochloride]
Primary rat microglia [1]; [6]
  LPS % cell toxicity: 0%
[2]; [7]
  Quadrant (FIG. 5b): Q4
Primary rat microglia [3]; [8]
  Fibrin % cell toxicity: 1%
[4]; [9]
  inhibition at 10 µM: 22%
[5]; [10]
  inhibition at 10 µM: 0%

## OC[C@H]1O[C@@H](O[C@@H]2[C@@H](CO)OC(O)(CO)[C@H]2O)[C@H](O)[C@@H](O)[C@H]1O (mixture of isomers) [Lactulose]
Primary rat microglia [1]; [6]
  LPS % cell toxicity: 0%
[2]; [7]
  Quadrant (FIG. 5b): Q4
Primary rat microglia [3]; [8]
  Fibrin % cell toxicity: 0%
[4]; [9]
  inhibition at 10 µM: 4%
[5]; [10]
  inhibition at 10 µM: -14%

## c1ccc(CC2=NCCN2)cc1 [Tolazoline, Priscoline]
Primary rat microglia [1]; [11]
  LPS % cell toxicity: 0%
[2]; [12]
  Quadrant (FIG. 5b): Q4
Primary rat microglia [3]; [13]
  Fibrin % cell toxicity: 0%
[4]; [14]
  LPS % inhibition: 17%
[5]; [15]
  Fibrin % inhibition: −90%

## CC(=O)Oc1ccccc1C(=O)Nc1ncc([N+](=O)[O-])s1 [Nitazoxanide]
Primary rat microglia [1]; [16]
  LPS % cell toxicity: 0%
[2]; [7]
  Quadrant (FIG. 5b): Q4
Primary rat microglia [3]; [17]
  Fibrin % cell toxicity: 1%
[4]; [18]
  inhibition at 10 µM: 22%
[5]; [19]
  inhibition at 10 µM: -16%

## CCCCC/C=C\CCC(=O)N[C@H]1[C@H](Oc2c3cc4cc2Oc2ccc(cc2Cl)[C@@H](O[C@@H]2O[C@H](CO)[C@@H](O)[C@H](O)[C@H]2NC(C)=O)[C@@H]2NC(=O)[C@H](NC(=O)[C@@H]4NC(=O)[C@H]4NC(=O)[C@@H](Cc5ccc(c(Cl)c5)O3)NC(=O)[C@H](N)c3ccc(O)c(c3)Oc3cc(O)cc4c3)c3ccc(O)c(c3)-c3c(O[C@H]4O[C@H](CO)[C@@H](O)[C@H](O)[C@@H]4O)cc(O)cc3[C@@H](C(=O)O)NC2=O)O[C@H](CO)[C@@H](O)[C@@H]1O [Teicoplanin [a(2-1) Shown]]
Primary rat microglia [1]; [11]
  LPS % cell toxicity: 0%
[2]; [12]
  Quadrant (FIG. 5b): Q4
Primary rat microglia [3]; [13]
  Fibrin % cell toxicity: 1%
[4]; [14]
  LPS % inhibition: 20%
[5]; [15]
  Fibrin % inhibition: 43%

## c1ccc2c(CC3=NCCN3)cccc2c1 [Naphazoline]
Primary rat microglia [1]; [16]
  LPS % cell toxicity: 1%
[2]; [7]
  Quadrant (FIG. 5b): Q4
Primary rat microglia [3]; [17]
  Fibrin % cell toxicity: 1%
[4]; [18]
  inhibition at 10 µM: 13%
[5]; [19]
  inhibition at 10 µM: -1%

## CO/N=C(\C(=O)N[C@@H]1C(=O)N2C(C(=O)O)=C(COC(C)=O)CS[C@H]12)c1csc(N)n1 [Cefotaxime]
Primary rat microglia [1]; [20]
  LPS % cell toxicity: 0%
[2]; primary HTS, 10 μM
  Quadrant (FIG. 5b): Q4
Primary rat microglia [3]; [21]
  Fibrin % cell toxicity: 1%
[4]; [22]
  LPS % inhibition: −8%
[5]; [23]
  Fibrin % inhibition: −20%

## CO/N=C(\C(=O)N[C@@H]1C(=O)N2C(C(=O)OCOC(=O)C(C)(C)C)=C(/C=C\c3scnc3C)CS[C@H]12)c1csc(N)n1 [Cefditorin Pivoxil]
Primary rat microglia [1]; [20]
  LPS % cell toxicity: 1%
[2]; primary HTS, 10 μM
  Quadrant (FIG. 5b): Q4
Primary rat microglia [3]; [21]
  Fibrin % cell toxicity: 1%
[4]; [22]
  LPS % inhibition: 21%
[5]; [23]
  Fibrin % inhibition: 2%

## Cc1cc(-c2ccccc2)nnc1NCCN1CCOCC1 [Minaprine]
Primary rat microglia [1]; [16]
  LPS % cell toxicity: 0%
[2]; [7]
  Quadrant (FIG. 5b): Q4
Primary rat microglia [3]; [17]
  Fibrin % cell toxicity: 0%
[4]; [18]
  inhibition at 10 µM: 10%
[5]; [19]
  inhibition at 10 µM: -22%

## CC(C)Nc1ncccn1 [Isaxonine]
Primary rat microglia [1]; [6]
  LPS % cell toxicity: 0%
[2]; [7]
  Quadrant (FIG. 5b): Q4
Primary rat microglia [3]; [8]
  Fibrin % cell toxicity: 0%
[4]; [9]
  inhibition at 10 µM: -1%
[5]; [10]
  inhibition at 10 µM: -46%

## CCc1nn(CCCN2CCN(c3cccc(Cl)c3)CC2)c(=O)n1CCOc1ccccc1 [Nefazodone]
Primary rat microglia [1]; [16]
  LPS % cell toxicity: 0%
[2]; [7]
  Quadrant (FIG. 5b): Q4
Primary rat microglia [3]; [17]
  Fibrin % cell toxicity: 0%
[4]; [18]
  inhibition at 10 µM: 3%
[5]; [19]
  inhibition at 10 µM: -37%

## CN1CCN(C(c2ccccc2)c2ccc(Cl)cc2)CC1 (stereo not drawn) [Chlorcyclizine]
Primary rat microglia [1]; [20]
  LPS % cell toxicity: 0%
[2]; primary HTS, 10 μM
  Quadrant (FIG. 5b): Q4
Primary rat microglia [3]; [21]
  Fibrin % cell toxicity: 1%
[4]; [22]
  inhibition at 10 µM: 6%
[5]; [23]
  inhibition at 10 µM: 9%

## Candicidin
Primary rat microglia [1]; [20]
  LPS % cell toxicity: 0%
[2]; primary HTS, 10 μM
  Quadrant (FIG. 5b): Q4
Primary rat microglia [3]; [21]
  Fibrin % cell toxicity: 1%
[4]; [22]
  LPS % inhibition: 31%
[5]; [23]
  Fibrin % inhibition: −41%

## CN(C)CC/C=C1/c2ccccc2COc2ccc(CC(=O)O)cc21 [Olopatadine]
Primary rat microglia [1]; [16]
  LPS % cell toxicity: 0%
[2]; [7]
  Quadrant (FIG. 5b): Q4
Primary rat microglia [3]; [17]
  Fibrin % cell toxicity: 1%
[4]; [18]
  inhibition at 10 µM: -9%
[5]; [19]
  inhibition at 10 µM: -42%

## CC(C)CCCC(C)N (stereo not drawn) [Octodrine]
Primary rat microglia [1]; [16]
  LPS % cell toxicity: 0%
[2]; [7]
  Quadrant (FIG. 5b): Q4
Primary rat microglia [3]; [17]
  Fibrin % cell toxicity: 0%
[4]; [18]
  inhibition at 10 µM: -2%
[5]; [19]
  inhibition at 10 µM: 2%
